According to patent US8440710B2, “HSL inhibitors useful in the treatment of diabetes” (Hoffmann-La Roche Inc., priority 2009, dated 2013):

Molecular target: T1, human HSL (Homo sapiens, UniProt Q05469)
T1 construct: generate a full length human HSL ORF with a 3′-His6 tag; made in house; host or cells: High 5 insect cells (baculovirus, pFast-BAC)
T1 sequence (Q05469 1-1076): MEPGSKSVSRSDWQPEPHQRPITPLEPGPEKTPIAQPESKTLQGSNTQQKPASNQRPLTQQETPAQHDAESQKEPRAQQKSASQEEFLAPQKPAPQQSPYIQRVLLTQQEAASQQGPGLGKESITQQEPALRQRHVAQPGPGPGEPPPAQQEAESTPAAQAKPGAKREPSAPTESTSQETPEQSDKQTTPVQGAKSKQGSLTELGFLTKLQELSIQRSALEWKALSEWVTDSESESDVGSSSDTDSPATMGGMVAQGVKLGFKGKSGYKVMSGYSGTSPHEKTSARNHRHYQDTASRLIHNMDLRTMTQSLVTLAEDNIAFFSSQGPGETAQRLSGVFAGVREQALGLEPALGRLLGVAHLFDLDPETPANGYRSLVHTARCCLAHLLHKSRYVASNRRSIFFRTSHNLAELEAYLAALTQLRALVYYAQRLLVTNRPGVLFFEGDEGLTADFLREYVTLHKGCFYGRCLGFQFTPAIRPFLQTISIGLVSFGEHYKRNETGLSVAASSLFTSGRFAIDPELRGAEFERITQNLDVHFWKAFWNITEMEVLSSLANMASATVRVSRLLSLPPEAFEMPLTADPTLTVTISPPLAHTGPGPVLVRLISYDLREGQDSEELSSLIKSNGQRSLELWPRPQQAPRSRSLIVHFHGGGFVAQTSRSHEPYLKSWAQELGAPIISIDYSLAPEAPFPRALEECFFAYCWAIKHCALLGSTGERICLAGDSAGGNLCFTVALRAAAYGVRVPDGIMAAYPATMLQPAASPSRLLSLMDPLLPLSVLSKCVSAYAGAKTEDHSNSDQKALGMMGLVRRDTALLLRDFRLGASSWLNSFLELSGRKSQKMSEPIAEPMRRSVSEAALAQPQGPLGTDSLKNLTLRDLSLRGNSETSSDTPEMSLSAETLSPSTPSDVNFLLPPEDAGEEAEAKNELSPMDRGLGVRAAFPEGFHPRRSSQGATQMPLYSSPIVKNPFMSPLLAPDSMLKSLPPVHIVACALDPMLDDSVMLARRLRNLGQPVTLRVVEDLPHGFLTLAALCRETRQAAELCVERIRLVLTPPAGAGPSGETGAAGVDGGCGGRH
Experiment: Human Hormone-Sensitive Lipase (HSL) enzyme inhibition assay (colorimetric, DMPT substrate)
Format: biochemical
Conditions: human full length HSL-His6, 2,3-dimercapto-1-propanol tributyrate substrate, 37° C. 20 minutes, absorbance at 405 nm; read-out: HSL hum IC50
Summary of the method: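 Full-length human HSL with C-terminal His6, expressed in baculovirus-infected High 5 cells and Ni-NTA purified, was added (15 ug/ml stock) to 1.5 mM DMPT in 100 mM MOPS pH 7.2, 0.2 mg/ml fatty acid-free BSA containing compound. After 20 min at 37 °C, DTNB with SDS/Triton X-100 was added; A405 read after 15 min at RT.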

IC50	SMILES
300 nM	O=C1N(c2ccc(OCC(F)(F)F)cc2)CC[C@]12CC[C@](O)(COCC(F)F)CC2 [Example 243, (5α,8β)-8-(2,2-Difluoro-ethoxymethyl)-8-hydroxy-2-[4-(2,2,2-trifluoro-ethoxy)-phenyl]-2-aza-spiro[4.5]decan-1-one]
30 nM	O=C1N(c2ccc(OCC(F)(F)F)cc2)CC[C@]12CC[C@@](O)(COCC(F)F)CC2 [Example 244, (5α,8α)-8-(2,2-Difluoro-ethoxymethyl)-8-hydroxy-2-[4-(2,2,2-trifluoro-ethoxy)-phenyl]-2-aza-spiro[4.5]decan-1-one]
70 nM	CCOC[C@]1(O)CC[C@]2(CCN(c3ccc(OCC(F)(F)F)nc3)C2=O)CC1 [Example 247, (5α,8α)-8-Ethoxymethyl-8-hydroxy-2-[6-(2,2,2-trifluoro-ethoxy)-pyridin-3-yl]-2-aza-spiro[4.5]decan-1-one]
340 nM	CCOC[C@]1(O)CC[C@@]2(CCN(c3ccc(O[C@@H](C)C(F)(F)F)nc3)C2=O)CC1 [Example 248, (5α,8β)-8-Ethoxymethyl-8-hydroxy-2-[6-((S)-2,2,2-trifluoro-1-methyl-ethoxy)-pyridin-3-yl]-2-aza-spiro[4.5]decan-1-one]
20 nM	CCOC[C@]1(O)CC[C@]2(CCN(c3ccc(O[C@@H](C)C(F)(F)F)nc3)C2=O)CC1 [Example 249, (5α,8α)-8-Ethoxymethyl-8-hydroxy-2-[6-((S)-2,2,2-trifluoro-1-methyl-ethoxy)-pyridin-3-yl]-2-aza-spiro[4.5]decan-1-one]
600 nM	CCOC[C@]1(O)CC[C@@]2(CCN(c3ccc(O[C@@H](C)C(F)(F)F)cc3)C2=O)CC1 [Example 250, (5α,8β)-8-Ethoxymethyl-8-hydroxy-2-[4-((S)-2,2,2-trifluoro-1-methyl-ethoxy)-phenyl]-2-aza-spiro[4.5]decan-1-one]
10 nM	CCOC[C@]1(O)CC[C@]2(CCN(c3ccc(O[C@@H](C)C(F)(F)F)cc3)C2=O)CC1 [Example 251, (5α,8α)-8-Ethoxymethyl-8-hydroxy-2-[4-((S)-2,2,2-trifluoro-1-methyl-ethoxy)-phenyl]-2-aza-spiro[4.5]decan-1-one]
230 nM	CCOC[C@]1(O)CC[C@@]2(CCN(c3ccc(O[C@H](C)C(F)(F)F)cc3)C2=O)CC1 [Example 252, (5α,8β)-8-Ethoxymethyl-8-hydroxy-2-[4-((R)-2,2,2-trifluoro-1-methyl-ethoxy)-phenyl]-2-aza-spiro[4.5]decan-1-one]
20 nM	CCOC[C@]1(O)CC[C@]2(CCN(c3ccc(O[C@H](C)C(F)(F)F)cc3)C2=O)CC1 [Example 253, (5α,8α)-8-Ethoxymethyl-8-hydroxy-2-[4-((R)-2,2,2-trifluoro-1-methyl-ethoxy)-phenyl]-2-aza-spiro[4.5]decan-1-one]
410 nM	O=C1N(c2ccc(OCC(F)(F)F)cc2)CC[C@]12CC[C@](O)(COCC1CCC1)CC2 [Example 254, (5α,8β)-8-[(Cyclobutylmethoxy)methyl]-8-hydroxy-2-[4-(2,2,2-trifluoro-ethoxy)-phenyl]-2-aza-spiro[4.5]decan-1-one]
10 nM	O=C1N(c2ccc(OCC(F)(F)F)cc2)CC[C@]12CC[C@@](O)(COCC1CCC1)CC2 [Example 255, (5α,8α)-8-[(Cyclobutylmethoxy)methyl]-8-hydroxy-2-[4-(2,2,2-trifluoro-ethoxy)-phenyl]-2-aza-spiro[4.5]decan-1-one]
690 nM	O=C1N(c2ccc(OCC(F)(F)F)cc2)CC[C@]12CC[C@](O)(COCC1CC1)CC2 [Example 256, (5α,8β)-8-[(Cyclopropylmethoxy)methyl]-8-hydroxy-2-[4-(2,2,2-trifluoro-ethoxy)-phenyl]-2-aza-spiro[4.5]decan-1-one]
10 nM	O=C1N(c2ccc(OCC(F)(F)F)cc2)CC[C@]12CC[C@@](O)(COCC1CC1)CC2 [Example 257, (5α,8α)-8-[(Cyclopropylmethoxy)methyl]-8-hydroxy-2-[4-(2,2,2-trifluoro-ethoxy)-phenyl]-2-aza-spiro[4.5]decan-1-one]
70 nM	COC[C@]1(O)CC[C@]2(CCN(c3ccc(OCC(F)(F)F)cc3)C2=O)CC1 [Example 258, (5α,8α)-8-Hydroxy-8-methoxymethyl-2-[4-(2,2,2-trifluoro-ethoxy)-phenyl]-2-aza-spiro[4.5]decan-1-one]
80 nM	O=C1N(c2ccc(OCC(F)(F)F)cc2)CC[C@]12CC[C@@](O)(COCC1CCO1)CC2 (stereo partly drawn) [Example 259, (5α,8α)-8-Hydroxy-8-(oxetan-2-ylmethoxymethyl)-2-[4-(2,2,2-trifluoro-ethoxy)-phenyl]-2-aza-spiro[4.5]decan-1-one]
60 nM	CC1(COC[C@]2(O)CC[C@]3(CCN(c4ccc(OCC(F)(F)F)cc4)C3=O)CC2)COC1 [Example 260, (5α,8α)-8-Hydroxy-8-(3-methyl-oxetan-3-ylmethoxymethyl)-2-[4-(2,2,2-trifluoro-ethoxy)-phenyl]-2-aza-spiro[4.5]decan-1-one]
10 nM	CCSC[C@]1(O)CC[C@]2(CCN(c3ccc(OCC(F)(F)F)cc3)C2=O)CC1 [Example 261, (5α,8α)-8-Ethylsulfanylmethyl-8-hydroxy-2-[4-(2,2,2-trifluoro-ethoxy)-phenyl]-2-aza-spiro[4.5]decan-1-one]
70 nM	O=C1N(c2ccc(OCC(F)(F)F)cc2)CC[C@]12CC[C@@](O)(COc1cccc(F)c1)CC2 [Example 262, (5α,8α)-8-(3-Fluoro-phenoxymethyl)-8-hydroxy-2-[4-(2,2,2-trifluoro-ethoxy)-phenyl]-2-aza-spiro[4.5]decan-1-one]
20 nM	O=C1N(c2ccc(OCC(F)(F)F)cc2)CC[C@]12CC[C@@](O)(COc1ccc(F)cc1)CC2 [Example 263, (5α,8α)-8-(4-Fluoro-phenoxymethyl)-8-hydroxy-2-[4-(2,2,2-trifluoro-ethoxy)-phenyl]-2-aza-spiro[4.5]decan-1-one]
200 nM	CCc1ccc(N2CC[C@]3(CC[C@](O)(COCC(F)F)CC3)C2=O)cc1 [Example 264, (5α,8β)-8-(2,2-Difluoro-ethoxymethyl)-2-(4-ethyl-phenyl)-8-hydroxy-2-aza-spiro[4.5]decan-1-one]
40 nM	CCc1ccc(N2CC[C@]3(CC[C@@](O)(COCC(F)F)CC3)C2=O)cc1 [Example 265, (5α,8α)-8-(2,2-Difluoro-ethoxymethyl)-2-(4-ethyl-phenyl)-8-hydroxy-2-aza-spiro[4.5]decan-1-one]
370 nM	CCCOC[C@]1(O)CC[C@@]2(CCN(c3ccc(OCC(F)(F)F)nc3)C2=O)CC1 [Example 266, (5α,8β)-8-Hydroxy-8-propoxymethyl-2-[6-(2,2,2-trifluoro-ethoxy)-pyridin-3-yl]-2-aza-spiro[4.5]decan-1-one]

SMILES	IC50
CC(C)COC[C@]1(O)CC[C@@]2(CCN(c3ccc(OCC(F)(F)F)cc3)C2=O)CC1 [Example 245, (5α,8β)-8-Hydroxy-8-isobutoxymethyl-2-[4-(2,2,2-trifluoro-ethoxy)-phenyl]-2-aza-spiro[4.5]decan-1-one]	280 nM
CC(C)COC[C@]1(O)CC[C@]2(CCN(c3ccc(OCC(F)(F)F)cc3)C2=O)CC1 [Example 246, (5α,8α)-8-Hydroxy-8-isobutoxymethyl-2-[4-(2,2,2-trifluoro-ethoxy)-phenyl]-2-aza-spiro[4.5]decan-1-one]	640 nM
